Results published in EP3362444B1, “COMPOUNDS” (Exonate Limited, priority 2015, dated 2017).

These molecules were tested against T1, SRPK1 (Homo sapiens, UniProt Q96SB4) (assay: In vitro kinase assay (Kinase-Glo), SRPK1 inhibition). Details: SRPK1 inhibition assay; 1 µM ATP, SRSF1 RS peptide, 30°C 10 minutes.
T1 construct: 0.1 µg of purified SRPK1 kinase
Type: biochemical
Experimental: Candidate compounds were tested for SRPK1 inhibition using a Kinase-Glo assay (Promega, Southampton, UK32). […] Candidate compounds were serially diluted from 10 µM to 0.5 nM and added to the reaction mixture, wells with omitted SRPK1 kinase and omitted compounds were also added as controls. All wells contained 1% DMSO (Fisher Scientific, Loughborough, UK). One micromolar ATP was added, wells minus ATP were used as background controls. The plate was then incubated at 30°C for 10 minutes. An equal volume of Kinase-Glo (25 µL; Promega) was added to each well and the plate read for luminescence using a Fluostar Optima (BMG Labtech) .

T1 sequence (Q96SB4 whole entry): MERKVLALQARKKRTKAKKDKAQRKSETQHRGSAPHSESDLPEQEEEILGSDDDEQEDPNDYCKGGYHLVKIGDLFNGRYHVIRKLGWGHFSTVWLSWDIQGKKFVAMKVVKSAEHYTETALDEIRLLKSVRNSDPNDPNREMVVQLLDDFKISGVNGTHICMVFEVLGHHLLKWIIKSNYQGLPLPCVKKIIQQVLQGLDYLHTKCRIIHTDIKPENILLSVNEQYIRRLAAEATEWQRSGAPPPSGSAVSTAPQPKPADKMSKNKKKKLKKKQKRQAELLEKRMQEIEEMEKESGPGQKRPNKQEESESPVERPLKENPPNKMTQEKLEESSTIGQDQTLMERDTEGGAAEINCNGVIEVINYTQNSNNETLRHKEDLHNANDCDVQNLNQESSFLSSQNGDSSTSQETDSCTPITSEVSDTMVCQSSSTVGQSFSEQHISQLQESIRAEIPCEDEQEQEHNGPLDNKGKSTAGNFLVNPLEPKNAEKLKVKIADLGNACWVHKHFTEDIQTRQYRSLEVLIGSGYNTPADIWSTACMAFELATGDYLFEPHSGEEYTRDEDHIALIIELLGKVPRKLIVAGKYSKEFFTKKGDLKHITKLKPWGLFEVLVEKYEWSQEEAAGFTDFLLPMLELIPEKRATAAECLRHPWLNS

Structure (SMILES)	IC50 [nM]
O=C(Nc1cc(C(F)(F)F)ccc1N1CCN(Cc2cscn2)CC1)c1ccccn1 [Compound 31, N-(2-(4-(thiazol-4-ylmethyl)piperazin-1-yl)-5-(trifluoromethyl)phenyl)-picolinamide]	6.7
O=C(Nc1cc(C(F)(F)F)ccc1N1CCN(Cc2cncs2)CC1)c1ccccn1 [Compound 32, N-(2-(4-(thiazol-5-ylmethyl)piperazin-1-yl)-5-(trifluoromethyl)phenyl)-picolinamide]	0.5
O=C(Nc1cc(C(F)(F)F)ccc1N1CCN(Cc2cc[nH]n2)CC1)c1ccccn1 [Compound 33, N-(2-(4-((1H-pyrazol-3-yl)methyl)piperazin-1-yl)-5-(trifluoromethyl)-phenyl)picolinamide]	12.7
Cn1ccc(CN2CCN(c3ccc(C(F)(F)F)cc3NC(=O)c3ccccn3)CC2)n1 [Compound 34, N-(2-(4-((1-methyl-1H-pyrazol-3-yl)methyl)piperazin-1-yl)-5-(trifluoromethyl)phenyl)picolinamide]	27
O=C(Nc1cc(C(F)(F)F)ccc1N1CCN(Cc2ccco2)CC1)c1ccncc1 [Compound 35, N-(2-(4-(furan-2-ylmethyl)piperazin-1-yl)-5-(trifluoromethyl)-phenyl)isonicotinamide]	388
O=C(Nc1cc(C(F)(F)F)ccc1N1CCN(Cc2cocn2)CC1)c1ccccn1 [Compound 36, N-(2-(4-(oxazol-4-ylmethyl)piperazin-1-yl)-5-(trifluoromethyl)phenyl)-picolinamide]	21.6
O=C(Nc1cc(C(F)(F)F)ccc1N1CCN(Cc2c[nH]c3ccccc23)CC1)c1ccccn1 [Compound 38, N-(2-(4-((1H-indol-3-yl)methyl)piperazin-1-yl)-5-(trifluoromethyl)phenyl)picolinamide]	31.3
O=C(Nc1cc(C(F)(F)F)ccc1N1CCN(Cc2cocn2)CC1)c1ccco1 [Compound 39, N-(2-(4-(oxazol-4-ylmethyl)piperazin-1-yl)-5-(trifluoro-methyl)-phenyl)furan-2-carboxamide]	60.7
Cc1ccc(CN2CCN(c3ccc(C(F)(F)F)cc3NC(=O)c3ccccn3)CC2)o1 [Compound 40, N-(2-(4-((5-methylfuran-2-yl)methyl)piperazin-1-yl)-5-(trifluoro-methyl)phenyl)picolinamide]	145
O=C(Nc1cc(C(F)(F)F)ccc1N1CCN(Cc2cocn2)CC1)c1ncco1 [Compound 42, N-(2-(4-(oxazol-4-ylmethyl)piperazin-1-yl)-5-(trifluoro-methyl)phenyl)oxazole-2-carboxamide]	1260

Now from value to molecule:

IC50 [nM]	Structure (SMILES)
0.7	O=C(Nc1cc(C(F)(F)F)ccc1N1CCN(Cc2ccoc2)CC1)c1ccc(C2CCOCC2)o1 [Compound 43, N-(2-(4-(furan-3-ylmethyl)piperazin-1-yl)-5-(trifluoromethyl)phenyl)-5-(tetrahydro-2H-pyran-4-yl)furan-2-carboxamide]
3.7	Cc1ccc(CN2CCN(c3ccc(C(F)(F)F)cc3NC(=O)c3ccc(C4CCOCC4)o3)CC2)o1 [Compound 44, N-(2-(4-((5-methylfuran-2-yl)methyl)piperazin-1-yl)-5-(trifluoromethyl)phenyl)-5-(tetrahydro-2H-pyran-4-yl)furan-2-carboxamide]
1.8	Cc1ccc(C(=O)Nc2cc(C(F)(F)F)ccc2N2CCN(Cc3ccoc3)CC2)o1 [Compound 45, N-(2-(4-(furan-3-ylmethyl)piperazin-1-yl)-5-(trifluoromethyl)phenyl)-5-methylfuran-2-carboxamide]
10.7	Cc1ccc(CN2CCN(c3ccc(C(F)(F)F)cc3NC(=O)c3ccc(C)o3)CC2)o1 [Compound 46, 5-methyl-N-(2-(4-((5-methylfuran-2-yl)methyl)piperazin-1-yl)-5-(trifluoromethyl)phenyl)furan-2-carboxamide]
21.9	O=C(Nc1cc(C(F)(F)F)ccc1N1CCN(Cc2ccoc2)CC1)c1ccco1 [Compound 47, N-(2-(4-(furan-3-ylmethyl)piperazin-1-yl)-5-(trifluoromethyl)phenyl)furan-2-carboxamide]

Same assay, conditions: by kinase assay or differential scanning fluorimetry; Figures 1 and 2

potency against SRPK1 relative to analogous compounds in which R3 is a pyridyl ring	Structure (SMILES)
improved potency	O=C(Nc1cc(C(F)(F)F)ccc1N1CCN(Cc2ccoc2)CC1)c1ccc(C2CCOCC2)o1 [Compound 43, N-(2-(4-(furan-3-ylmethyl)piperazin-1-yl)-5-(trifluoromethyl)phenyl)-5-(tetrahydro-2H-pyran-4-yl)furan-2-carboxamide]
